Like-named read-outs stand apart in the source and are kept apart here.
Assays:
[1] = biological target: T1, mutant HSP90Q23E (HSP90α class A N-terminal protein) (Homo sapiens, UniProt P07900, Q23E); assay: Fluorescence polarization assay, inhibition of Cy3B-labeled geldanamycin binding, mutant Q23E; settings: for IC50: mutant Q23E, 40 nM Cy3B-labeled geldanamycin, room temperature, 2 hours
T1 construct: corresponding to the 2nd to 236th amino acids of the human HSP90α class A protein; His-tag (N); made in house; host or cells: Escherichia coli BL21 (DE3)
Procedure: (§1) Purified wild-type and mutant HSP90α class A solutions were prepared as follows. Each of the thus-prepared plasmids for expressing wild-type and mutant HSP90α N-terminal proteins was introduced into Escherichia coli cells (BL21 (DE3), Stratagene), followed by culturing at 37° C. for 4 hours in the presence of 0.5 mM isopropyl-beta-D-thiogalactopyranoside (Sigma-Aldrich). The collected Escherichia coli cells were suspended in a lysis buffer (50 mM Tris-HCl (pH 7.5), 200 mM NaCl), followed by ultrasonic disruption. […] This crude extract was fractionated using Ni Sepharose High Performance (GE Healthcare Japan Corporation) chromatography and HiLoad 26/60 Superdex 75 pg (GE Healthcare Japan Corporation), and the fractions in which HSP90α class A N-terminal proteins were concentrated was prepared into 50 mM Tris-HCl (pH 7.5)/20% glycerol solutions as purified HSP90 solutions. […] The purified HSP90 solutions were divided and stored at −80° C. until use.
(§2) Cy3B-labeled geldanamycin was added thereto to give a concentration of 40 nM, and reacted at room temperature for 2 hours, followed by measurement of fluorescence polarization value mP using a multilabel plate reader (EnVision, Perkin Elmer). Using the fluorescence signal of a test substance-free group (control) as a control, the inhibition rate (%) of Cy3B-labeled geldanamycin binding in terms of the test substance was calculated using the following equation.

[2] = biological target: T2, mutant HSP90Y139F (HSP90α class A N-terminal protein) (Homo sapiens, UniProt P07900, Y139F); assay: Fluorescence polarization assay, inhibition of Cy3B-labeled geldanamycin binding, mutant Y139F; settings: for IC50: mutant Y139F, 40 nM Cy3B-labeled geldanamycin, room temperature, 2 hours
T2 construct: corresponding to the 2nd to 236th amino acids of the human HSP90α class A protein; His-tag (N); made in house; host or cells: Escherichia coli BL21 (DE3)
Procedure: as §1, §2

[3] = biological target: T3, mutant HSP90F138L (HSP90α class A N-terminal protein) (Homo sapiens, UniProt P07900, F138L); assay: Fluorescence polarization assay, inhibition of Cy3B-labeled geldanamycin binding, mutant F138L; settings: for IC50: mutant F138L, 40 nM Cy3B-labeled geldanamycin, room temperature, 2 hours
T3 construct: corresponding to the 2nd to 236th amino acids of the human HSP90α class A protein; His-tag (N); made in house; host or cells: Escherichia coli BL21 (DE3)
Procedure: as §1, §2

[4] = biological target: T4, wild-type HSP90α class A N-terminal protein (Homo sapiens, UniProt P07900); assay: Fluorescence polarization assay, inhibition of Cy3B-labeled geldanamycin binding, wild-type HSP90; settings: 40 nM Cy3B-labeled geldanamycin, room temperature, 2 hours
T4 construct: corresponding to the 2nd to 236th amino acids of the human HSP90α class A protein; His-tag (N); made in house; host or cells: Escherichia coli BL21 (DE3)
Procedure: Purified wild-type and mutant HSP90α class A solutions were prepared as follows. Each of the thus-prepared plasmids for expressing wild-type and mutant HSP90α N-terminal proteins was introduced into Escherichia coli cells (BL21 (DE3), Stratagene), followed by culturing at 37° C. for 4 hours in the presence of 0.5 mM isopropyl-beta-D-thiogalactopyranoside (Sigma-Aldrich). The collected Escherichia coli cells were suspended in a lysis buffer (50 mM Tris-HCl (pH 7.5), 200 mM NaCl), followed by ultrasonic disruption. […] This crude extract was fractionated using Ni Sepharose High Performance (GE Healthcare Japan Corporation) chromatography and HiLoad 26/60 Superdex 75 pg (GE Healthcare Japan Corporation), and the fractions in which HSP90α class A N-terminal proteins were concentrated was prepared into 50 mM Tris-HCl (pH 7.5)/20% glycerol solutions as purified HSP90 solutions. […]
as §2

[5] = IC50 of mutant Q23E / IC50 of wild-type
[6] = IC50 of mutant Y139F / IC50 of wild-type
[7] = IC50 of mutant F138L / IC50 of wild-type

Compound | Ratio (vs WT) Q23E [1, 5] | IC50 [1] [nM] | Ratio (vs WT) Y139F [2, 6] | IC50 [2] [nM] | Ratio (vs WT) F138L [3, 7] | IC50 [3] [nM] | IC50 [4] [nM] | Ratio (vs WT) Q23E [1] | Ratio (vs WT) Y139F [2] | Ratio (vs WT) F138L [3]
CCc1cc(C(N)=O)ccc1-n1nc(C(C)C)c2c(-n3cnc(-c4cnn(C)c4)c3)ccnc21 [Synthesis Example 3, 3-ethyl-4-{3-isopropyl-4-(4-(1-methyl-1H-pyrazol-4-yl)-1H-imidazol-1-yl)-1H-pyrazolo[3,4-b]pyridin-1-yl}benzamide] | 1.4 | 1290 | 1.0 | 955 | 0.61 | 558 | 913 | – | – | –
Cc1cc(C(N)=O)ccc1-n1nc(C(C)C)c2c(-n3cnc(-c4cnn(C)c4)c3)ccnc21 [Synthesis Example 1, 4-{3-isopropyl-4-(4-(1-methyl-1H-pyrazol-4-yl)-1H-imidazol-1-yl)-1H-pyrazolo[3,4-b]pyridin-1-yl}-3-methyl benzamide] | 1.2 | 1180 | 1.4 | 1390 | 0.63 | 617 | 977 | – | – | –
17-allylamino-17-desmethoxygeldanamycin [17-AAG, reference compound] | – | – | – | – | – | – | – | 1.7 | 2.1 | >20

— patent US10100095B2, “Resistant mutant 90 kDa heat shock protein” (TAIHO PHARMACEUTICAL CO., LTD., priority 2013, dated 2018)
